In US8759537B2, “3H-imidazo [4, 5-C] pyridine-6-carboxamides as anti-inflammatory agents” (Boehringer Ingelheim International GmbH, priority 2010, dated 2014):

Experiments:
mPGES-1 [1] = target: T1, mPGES-1 (Homo sapiens (Human), UniProt O14684); test: mPGES-1 enzyme assay (HTRF detection of PGE2); type: biochemical; settings: recombinant human mPGES-1 microsomes, PGH2 2 μM; read-out: mPGES-1 inhibitory effect in the enzyme assay, IC50
Experimental: Microsomes from Rosetta E. coli bacteria expressing recombinant human mPGES-1 can be derived as described below:
Inoculate 5 ml LB with Ampicilin (50 μg/ml) and Chloramphenicol (34 μg/ml) with bacteria from freeze culture. Incubate 8 h at 37° C. with 200 rpm. Thereafter, inoculate 500-1000 ml LB containing Amp and Chloro with the 5 ml on culture and grow to OD640 of 0.8-1.0. Chill the culture to +4° C. before induction. Induce the culture with IPTG at a final concentration of 400 μM. Express the protein at room temp 18-23° C. with 200 rpm shaking over night.
The following steps can be performed on the following day: • 1. Spin down the cells in 250 ml centrifuge flasks for 15 min at 7000 rpm (Beckmann Coulte Avanti J-E centrifuge) • 2. Dissolve the pellet from 250 ml culture in 12.5 ml homogenization buffer • 3. (15 mM Tris-HCL pH8, 1 mM EDTA pH8, […], 2.5 mM GSH, 1 Tablet Protease inhibitor per 50 ml buffer) • 4. […] Add 2.5 ml MgCl2 (100 mM) and DNase 12.5 μl (0.8 mg/ml) and incubate on ice for 30 min • 6. Spin down the bacteria debris and save the supernatant, 7000 rpm for 15 min • 7. Isolate the protein containing membranes in the supernatant by ultracentrifugation 120000×g for 2 hour at 4° C. (Sorvall T880 rotor). • 8. Discard the supernatant and dissolve the pellet in 20 mM Potassium phosphate buffer pH7.4 (KH2PO4 and K2HPO4) buffer by sonication (5×10 s, 30% of a 50 W sonifier) and aliquot the enzyme and store aliquots at −80° C.
Before each experiment is performed an aliquot of the enzyme is thawed and it can then be dissolved in 0.1 M Potassium phosphate buffer pH7.4 (KH2PO4 and K2HPO4) buffer containing 2.5 mM GSH.
The aim of this assay is to determine the affinity of a test compound for the mPGES-1 enzyme.
47 μl of recombinant human mPGES-1 (˜0.5 μg protein/well) containing microsomal suspension in a buffer containing GSH, (2.5 mmol/L L-Glutathione reduced, dissolved in 0.1 mol/L Phosphat Buffer pH 7.4) is dispensed in a 384-well plate and thereafter 1 μl of the test compound(s) is/are added and incubated for 25 minutes at room temperature. The enzyme reaction is started by the addition of 2 ul PGH2 (final conc. 2 μM) dissolved in water-free Diglyme. After 60 seconds the reaction is terminated by addition of a stop solution containing FeCl2 (10 μL 0.074 mol/l FeCl2). The samples are diluted between 1:25 in PBS (Phosphate Buffered Saline). 10 μl of the diluted samples are transferred to 384-well low volume plate. In order to quantify the amount of PGE2 that has been formed, a homogenous time resolved fluorescent (HTRF) detecting of PGE2 has been performed using a commercially available kit from Cisbio according to the manufactures recommendation. […] Briefly, the diluted samples are mixed with 5 μl PGE2-d2 conjungate and 5 μl anti-PGE2 cryptate conjungate. After an incubation period of the plates over night, the fluorescence is measured by the use of an appropriate microplate reader.
The quantification plate contains also wells with different concentrations of PGE2 as calibration curve for the calculation of the PGE2 concentrations from the HTRF ratio values.
From all mPGES enzyme assay the background is subtracted and the IC50 is calculated over a nonlinear regression with conventional software.

mPGES-1 [2] = target: T1, mPGES-1; test: A549 cell-based assay (PGE2 formation, IL-1β stimulated, 50% human serum); settings: A549 cells, IL-1β 5 ng/ml, read-out: mPGES-1 inhibitory effect in the cell assay, IC50
Experimental: Although the enzymatic assay is a high throughput assay the disadvantage is that it uses a recombinant protein which is not in its natural environment. Accordingly a cellular assay was established in which a cell line of human origin (A549) expressing the mPGES-1 protein was used. In addition in order to mimic the situation in humans in which compounds can be bound to plasma proteins 50% human serum is added in the assay.
Cells were detached using Trypsin-EDTA. A549 cells were seeded in a 384-well collagene plate at a density of 7000 cells/well (50 μl) in F-12 medium containing 1% Penicillin-Streptomycin and 50% human serum. The cells were allowed to attach for 3-4 h. […] The total volume is 100 μl.
Concentrations of PGE2 in the cell free medium (10 μl) were measured using a commercially available HTRF kit from Cisbio (as described above). The PGE2 formation in the absence of test compound was taken as 100%.
IC50 values were derived from at 6-8 point titrations using conventional software.

T1 sequence (O14684 whole entry): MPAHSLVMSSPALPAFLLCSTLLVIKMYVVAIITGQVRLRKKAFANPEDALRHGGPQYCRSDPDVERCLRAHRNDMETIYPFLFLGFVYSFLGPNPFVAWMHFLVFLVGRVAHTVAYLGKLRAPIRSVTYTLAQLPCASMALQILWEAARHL

| IC50 (mPGES-1 [1]) | IC50 (mPGES-1 [2]) | SMILES |
| --- | --- | --- |
| 1 nM | 5 nM | Cc1ccc(CNC(=O)C(C)(C)C)c(C)c1Nc1nc2cc(C(=O)N[C@H]3CC[C@H](C(F)(F)F)CC3)c(OCC(F)F)cc2n1C [Example 14, N-(trans-4-Trifluoromethyl-cyclohex-1-yl)-2-{2,6-dimethyl-3-[(2,2-dimethyl-propionylamino)-methyl]-phenylamino}-6-(2,2-difluoroethoxy)-1-methyl-1H-benzimidazole-5-carboxylic acid amide] |
| 3 nM | 11 nM | Cn1c(Nc2c(Cl)ccc(CNC(=O)OC(C)(C)C)c2Cl)nc2cc(C(=O)Nc3ccc(F)c(Cl)c3)c(OCC(F)F)cc21 [Example 15] |
| 5 nM | 106 nM | Cn1c(Nc2c(Cl)ccc(CNC(=O)OC(C)(C)C)c2Cl)nc2cc(C(=O)NCC(F)(F)F)c(OCC(F)F)cc21 [Example 16] |
| 1 nM | 4 nM | Cn1c(Nc2c(Cl)ccc(CNC(=O)C(C)(C)C)c2Cl)nc2cc(C(=O)Nc3cccc(Cl)c3)c(F)cc21 [Example 18] |
| 1 nM | 2 nM | Cn1c(Nc2c(Cl)ccc(CNC(=O)C(C)(C)C)c2Cl)nc2cc(C(=O)Nc3ccc(Cl)c(F)c3)c(F)cc21 [Example 19] |
| 3 nM | 14 nM | Cn1c(Nc2c(Cl)ccc(CNC(=O)C(C)(C)C)c2Cl)nc2cc(C(=O)NC3CC(F)(F)C3)c(F)cc21 [Example 20] |
| 3 nM | 36 nM | Cn1c(Nc2c(Cl)ccc(CNC(=O)C(C)(C)C)c2Cl)nc2cc(C(=O)NCC(F)(F)F)c(F)cc21 [Example 21] |
| 2 nM | 1 nM | Cn1c(Nc2c(Cl)ccc(CNC(=O)C(C)(C)C)c2Cl)nc2cc(C(=O)Nc3cc(Cl)ccc3Cl)c(F)cc21 [Example 22] |
| 1 nM | < 1 nM | Cn1c(Nc2c(Cl)ccc(CNC(=O)C(C)(C)C)c2Cl)nc2cc(C(=O)Nc3cc(F)cc(Cl)c3)c(F)cc21 [Example 23] |
| 2 nM | 9 nM | Cn1c(Nc2c(F)ccc(CNC(=O)C(C)(C)C)c2F)nc2cc(C(=O)N[C@H]3CC[C@H](C(F)(F)F)CC3)c(OCC(F)F)cc21 [Example 25] |
| 2 nM | 11 nM | Cn1c(Nc2c(F)ccc(CNC(=O)C(C)(C)C)c2F)nc2cc(C(=O)Nc3ccc(F)c(Cl)c3)c(OCC(F)F)cc21 [Example 26] |
| 4 nM | 124 nM | Cn1c(Nc2c(F)ccc(CNC(=O)C(C)(C)C)c2F)nc2cc(C(=O)NCC(F)(F)F)c(OCC(F)F)cc21 [Example 27] |
| 4 nM | < 1 nM | Cn1c(Nc2c(Cl)ccc(CNC(=O)C(C)(C)C)c2Cl)nc2cc(C(=O)Nc3ccc(F)c(Cl)c3)c(OCC(F)F)cc21 [Example 29] |
| 4 nM | < 1 nM | Cn1c(Nc2c(Cl)ccc(CNC(=O)C(C)(C)C)c2Cl)nc2cc(C(=O)Nc3cccc(Cl)c3)c(OCC(F)F)cc21 [Example 30] |
| 3 nM | 1 nM | Cn1c(Nc2c(Cl)ccc(CNC(=O)C(C)(C)C)c2Cl)nc2cc(C(=O)Nc3cccc(F)c3)c(OCC(F)F)cc21 [Example 31] |
| 3 nM | 1 nM | Cn1c(Nc2c(Cl)ccc(CNC(=O)C(C)(C)C)c2Cl)nc2cc(C(=O)NC3CCC3)c(OCC(F)F)cc21 [Example 32] |
| 4 nM | 1 nM | Cn1c(Nc2c(Cl)ccc(CNC(=O)C(C)(C)C)c2Cl)nc2cc(C(=O)Nc3nc4ccc(Cl)cc4s3)c(OCC(F)F)cc21 [Example 34] |
| 4 nM | < 1 nM | Cn1c(Nc2c(Cl)ccc(CNC(=O)C(C)(C)C)c2Cl)nc2cc(C(=O)NCc3ccccc3C(F)(F)F)c(OCC(F)F)cc21 [Example 35] |

| IC50 (mPGES-1 [1]) | IC50 (mPGES-1 [2]) | SMILES |
| --- | --- | --- |
| 4 nM | < 1 nM | Cn1c(Nc2c(Cl)ccc(CNC(=O)C(C)(C)C)c2Cl)nc2cc(C(=O)NCc3ccc(F)cc3C(F)(F)F)c(OCC(F)F)cc21 [Example 36] |
| 5 nM | 9 nM | Cn1c(Nc2c(Cl)ccc(CNC(=O)C(C)(C)C)c2Cl)nc2cc(C(=O)NC[C@@H]3CCCO3)c(OCC(F)F)cc21 [Example 37] |
| 3 nM | < 1 nM | Cn1c(Nc2c(Cl)ccc(CNC(=O)C(C)(C)C)c2Cl)nc2cc(C(=O)NCC(F)(F)C(F)(F)F)c(OCC(F)F)cc21 [Example 38] |
| 4 nM | < 1 nM | CC(NC(=O)c1cc2nc(Nc3c(Cl)ccc(CNC(=O)C(C)(C)C)c3Cl)n(C)c2cc1OCC(F)F)C(F)(F)F (stereo not drawn) [Example 39] |
| 4 nM | < 1 nM | Cn1c(Nc2c(Cl)ccc(CNC(=O)C(C)(C)C)c2Cl)nc2cc(C(=O)Nc3cc(F)cc(Cl)c3)c(OCC(F)F)cc21 [Example 40] |
| 4 nM | 1 nM | Cn1c(Nc2c(Cl)ccc(CNC(=O)C(C)(C)C)c2Cl)nc2cc(C(=O)Nc3ncc(Cl)s3)c(OCC(F)F)cc21 [Example 41] |
| 4 nM | < 1 nM | Cn1c(Nc2c(Cl)ccc(CNC(=O)C(C)(C)C)c2Cl)nc2cc(C(=O)NCc3ncccc3C(F)(F)F)c(OCC(F)F)cc21 [Example 42] |
| 4 nM | 4 nM | Cn1c(Nc2c(Cl)ccc(CNC(=O)C(C)(C)C)c2Cl)nc2cc(C(=O)NCC(F)F)c(OCC(F)F)cc21 [Example 43] |
| 3 nM | 1 nM | Cn1c(Nc2c(Cl)ccc(CNC(=O)C(C)(C)C)c2Cl)nc2cc(C(=O)NCC3CC3(Cl)Cl)c(OCC(F)F)cc21 (stereo not drawn) [Example 44] |
| 4 nM | < 1 nM | Cn1c(Nc2c(Cl)ccc(CNC(=O)C(C)(C)C)c2Cl)nc2cc(C(=O)Nc3ccc(Cl)c(F)c3)c(OCC(F)F)cc21 [Example 45] |
| 3 nM | 1 nM | Cn1c(Nc2c(Cl)ccc(CNC(=O)C(C)(C)C)c2Cl)nc2cc(C(=O)NCC3CCC3)c(OCC(F)F)cc21 [Example 46] |
| 3 nM | < 1 nM | Cn1c(Nc2c(Cl)ccc(CNC(=O)C(C)(C)C)c2Cl)nc2cc(C(=O)Nc3ccc(C(F)(F)F)nc3)c(OCC(F)F)cc21 [Example 47] |
| 3 nM | 1 nM | Cn1c(Nc2c(Cl)ccc(CNC(=O)C(C)(C)C)c2Cl)nc2cc(C(=O)NCCC(F)(F)F)c(OCC(F)F)cc21 [Example 48] |
| 4 nM | 1 nM | COCC1(CNC(=O)c2cc3nc(Nc4c(Cl)ccc(CNC(=O)C(C)(C)C)c4Cl)n(C)c3cc2OCC(F)F)CCCC1 [Example 49] |
| 4 nM | 1 nM | COC(=O)c1ccc(NC(=O)c2cc3nc(Nc4c(Cl)ccc(CNC(=O)C(C)(C)C)c4Cl)n(C)c3cc2OCC(F)F)s1 [Example 50] |
| 3 nM | < 1 nM | Cn1c(Nc2c(Cl)ccc(CNC(=O)C(C)(C)C)c2Cl)nc2cc(C(=O)NCCC3CC3)c(OCC(F)F)cc21 [Example 51] |
| 4 nM | < 1 nM | Cn1c(Nc2c(Cl)ccc(CNC(=O)C(C)(C)C)c2Cl)nc2cc(C(=O)NCC3CCCCC3)c(OCC(F)F)cc21 [Example 52] |
| 4 nM | 1 nM | Cn1c(Nc2c(Cl)ccc(CNC(=O)C(C)(C)C)c2Cl)nc2cc(C(=O)NCC3CC3)c(OCC(F)F)cc21 [Example 53] |
